The values that follow come from ChEMBL document CHEMBL1151009, “Synthesis and pharmacological evaluation of combined Thromboxane receptor antagonists/thromboxane synthase inhibitors: Pyridine-containing amino-prostanoids” (Bioorg Med Chem Lett, 1991).

The target of experiment [1] is T1, Thromboxane A2 receptor (Rattus norvegicus, UniProt P34978).
T1 sequence (P34978 whole entry): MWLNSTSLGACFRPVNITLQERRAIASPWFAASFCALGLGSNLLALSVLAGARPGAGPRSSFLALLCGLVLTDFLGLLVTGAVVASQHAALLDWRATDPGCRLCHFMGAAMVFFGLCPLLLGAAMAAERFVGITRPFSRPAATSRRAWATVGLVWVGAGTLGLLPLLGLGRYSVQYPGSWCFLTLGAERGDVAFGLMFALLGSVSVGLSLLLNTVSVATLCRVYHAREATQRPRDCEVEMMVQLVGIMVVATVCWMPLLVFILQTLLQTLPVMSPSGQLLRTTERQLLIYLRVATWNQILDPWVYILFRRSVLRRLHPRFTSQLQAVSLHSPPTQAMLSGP
Put plainly: In vitro thromboxane A2 receptor antagonism through inhibition of U-46619-induced contraction of rat isolated thoracic aortic strip. In kind it is functional. The following applies: read-out: pA2 (converted).

In experiment [2] the target is T2, Thromboxane A2 receptor (Homo sapiens, UniProt P21731).
T2 sequence (P21731 whole entry): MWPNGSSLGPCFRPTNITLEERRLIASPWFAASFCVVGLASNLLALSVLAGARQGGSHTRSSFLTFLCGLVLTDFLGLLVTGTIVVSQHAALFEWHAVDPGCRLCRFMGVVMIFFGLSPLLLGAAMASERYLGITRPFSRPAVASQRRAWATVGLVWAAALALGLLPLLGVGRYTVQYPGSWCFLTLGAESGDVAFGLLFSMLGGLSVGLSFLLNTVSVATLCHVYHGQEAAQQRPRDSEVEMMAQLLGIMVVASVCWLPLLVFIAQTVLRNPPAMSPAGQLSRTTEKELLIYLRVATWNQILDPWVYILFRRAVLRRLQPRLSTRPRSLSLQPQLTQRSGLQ
Put plainly: In vitro thromboxane A2 receptor antagonism through inhibition of U-46619-induced platelet aggregation in human whole blood. In kind it is functional, tissue-based. The following applies: read-out: pA2 (converted).

In the next experiment the target is T3, Thromboxane-A synthase (Homo sapiens, UniProt P24557).
T3 sequence (P24557 whole entry): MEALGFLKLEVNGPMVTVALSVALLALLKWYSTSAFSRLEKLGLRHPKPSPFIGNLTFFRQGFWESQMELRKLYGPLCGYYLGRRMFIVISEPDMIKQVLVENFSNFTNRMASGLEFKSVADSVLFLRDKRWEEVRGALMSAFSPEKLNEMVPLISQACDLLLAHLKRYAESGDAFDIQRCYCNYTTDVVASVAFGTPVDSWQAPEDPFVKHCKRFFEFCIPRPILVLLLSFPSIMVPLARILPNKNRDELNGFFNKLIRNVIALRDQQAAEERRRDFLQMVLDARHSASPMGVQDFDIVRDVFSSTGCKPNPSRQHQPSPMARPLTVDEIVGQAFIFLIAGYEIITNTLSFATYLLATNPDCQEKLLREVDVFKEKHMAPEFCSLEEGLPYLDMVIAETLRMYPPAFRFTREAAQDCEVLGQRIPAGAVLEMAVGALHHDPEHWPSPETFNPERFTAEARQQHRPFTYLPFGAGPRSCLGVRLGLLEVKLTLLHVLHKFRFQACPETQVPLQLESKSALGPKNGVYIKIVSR
Put plainly: In vitro TXA2 synthase antagonism through inhibition of collagen induced thromboxane-A2 production in human citreated whole blood. In kind it is functional, tissue-based.

For orientation: IC50 means the concentration needed to halve the response being measured. A high value points to weaker potency in that assay.

As to `CCCCc1ccncc1-c1ccc(CO[C@@H]2CC[C@H](N3CCCCCC3)[C@H]2OC/C=C\CCC(=O)O)cc1`, the figures for the Kb at Thromboxane A2 receptor [1] and at Thromboxane A2 receptor [2] were 10 nM and 3.98 nM, respectively. The compound further gave a 50% inhibitory concentration (IC50) against Thromboxane-A synthase of 100 nM.
Consider `O=C(O)CC/C=C\CO[C@H]1[C@H](OCc2ccc(-c3cncc(CO)c3)cc2)CC[C@@H]1N1CCCCCC1`, for which the Kb at Thromboxane A2 receptor [1] is 25.1 nM; on Thromboxane A2 receptor [2] it was 6.31 nM. Also, at Thromboxane-A synthase, the IC50 was over 10000 nM.
For the compound `CCCc1ccncc1-c1ccc(CO[C@@H]2CC[C@H](N3CCCCCC3)[C@H]2OC/C=C\CCC(=O)O)cc1`, the Kb at Thromboxane A2 receptor [1] is 31.6 nM; at Thromboxane A2 receptor [2], 2.51 nM. Besides, the IC50 against Thromboxane-A synthase is 100 nM.
Take `O=C(O)CC/C=C\CO[C@H]1[C@H](OCc2ccc(-c3cnccc3CO)cc2)CC[C@@H]1N1CCCCCC1`: the Kb on Thromboxane A2 receptor [1] is 12.6 nM; at Thromboxane A2 receptor [2], 3.16 nM. At Thromboxane-A synthase, the half-inhibitory concentration (IC50) was 1580 nM.
The like results for `Cc1cnccc1-c1ccc(CO[C@@H]2CC[C@H](N3CCCCCC3)[C@H]2OC/C=C\CCC(=O)O)cc1` were, in that order, 20 nM, 6.31 nM and 1580 nM.
The like results for `O=C(O)CC/C=C\CO[C@H]1[C@H](OCc2ccc(-c3cnccc3CCO)cc2)CC[C@@H]1N1CCCCCC1` were, in that order, 3.16 nM, 3.16 nM and over 10000 nM.
For `O=C(O)CC/C=C\CO[C@H]1[C@H](OCc2ccc(-c3ccncc3CO)cc2)CC[C@@H]1N1CCCCCC1`, the Kb on Thromboxane A2 receptor [1] was 15.8 nM; on Thromboxane A2 receptor [2], 3.16 nM.
As for `O=C(O)CC/C=C\CO[C@H]1[C@H](OCc2ccc(-c3cccnc3CO)cc2)CC[C@@H]1N1CCCCCC1`, the Kb at Thromboxane A2 receptor [1] and at Thromboxane A2 receptor [2] was 3.16 nM in each case. The concentration for half-maximal inhibition (IC50) against Thromboxane-A synthase is over 10000 nM.
In the case of `O=C(O)CC/C=C\CO[C@H]1[C@H](OCc2ccc(-c3ccncc3)cc2)CC[C@@H]1N1CCCCCC1`, the Kb on Thromboxane A2 receptor [1] was 79.4 nM; on Thromboxane A2 receptor [2] it was 10 nM. This compound also gave an IC50 on Thromboxane-A synthase of 631 nM.
The like results for `CC(C)(C)c1ccncc1-c1ccc(CO[C@@H]2CC[C@H](N3CCCCCC3)[C@H]2OC/C=C\CCC(=O)O)cc1` were, in that order, 3.16 nM, 3.16 nM and over 10000 nM.
With `Cc1ccncc1-c1ccc(CO[C@@H]2CC[C@H](N3CCCCCC3)[C@H]2OC/C=C\CCC(=O)O)cc1`, the Kb is 31.6 nM on Thromboxane A2 receptor [1] and 2.51 nM on Thromboxane A2 receptor [2]. The concentration for half-maximal inhibition (IC50) against Thromboxane-A synthase was 100 nM.
As to `CCc1cnccc1-c1ccc(CO[C@@H]2CC[C@H](N3CCCCCC3)[C@H]2OC/C=C\CCC(=O)O)cc1`, the Kb on Thromboxane A2 receptor [1] was 15.8 nM; at Thromboxane A2 receptor [2] it was 6.31 nM. It took 398 nM to reach half-maximal inhibition against Thromboxane-A synthase (IC50).
For the compound `CCc1ccncc1-c1ccc(CO[C@@H]2CC[C@H](N3CCCCCC3)[C@H]2OC/C=C\CCC(=O)O)cc1`, the figures for the Kb on Thromboxane A2 receptor [1] and on Thromboxane A2 receptor [2] were 10 nM and 1 nM, respectively. On Thromboxane-A synthase, this compound gave a half-maximal inhibitory concentration (IC50) of 2510 nM.
As to `O=C(O)CC/C=C\CO[C@H]1[C@H](OCc2ccc(-c3cccnc3)cc2)CC[C@@H]1N1CCCCCC1`, the Kb on Thromboxane A2 receptor [1] is 39.8 nM; on Thromboxane A2 receptor [2], 12.6 nM. Further, the IC50 against Thromboxane-A synthase is 631 nM.
Take `O=C(O)CCCC/C=C(\c1ccccc1)c1cccnc1` [(E)-ISBOGREL]: the figures for the Kb on Thromboxane A2 receptor [1] and at Thromboxane A2 receptor [2] were 6310 nM and 15800 nM, respectively.
Regarding `O=C(O)CCCCO/N=C(/c1cccnc1)c1cccc(C(F)(F)F)c1` [RIDOGREL], the Kb was 1260 nM at Thromboxane A2 receptor [1] and 3980 nM at Thromboxane A2 receptor [2]. Besides, the IC50 against Thromboxane-A synthase is 31.6 nM.
